Like-named read-outs stand apart in the source and are kept apart here.
System: human G2 acute lymphoblastic leukemia (ALL) cells
Test: Flow cytometry cell-based assay: inhibition of soluble VCAM-1 binding to G2 ALL cells
Conditions: for IC50: inhibition of sVCAM-1 binding to human G2 ALL cells, read-out: sVCAM-1 IC50; for inhibition of sVCAM-1 binding compared with other inhibitors / inhibition of sVCAM-1 binding compared with Firategrast: flow cytometry; for inhibition of sVCAM-1 binding compared with other inhibitors: FIG. 6, 7, 10, 11; for inhibition of sVCAM-1 binding compared with Firategrast: FIG. 5, 8, 9, 12
Procedure: (§1) Compounds were tested for their ability to inhibit the binding of soluble VCAM-1 to human G2 acute lymphoblastic leukemia (ALL) cells. Briefly, G2 ALL cells are pre-incubated with increasing concentrations (0.001 to 1000 nM) of compounds for 30 minutes. Soluble VCAM/Fc chimera protein (R&D systems) is then added to the mixture and the cells incubated for an additional 30 minutes. Afterwards, cells are washed and VCAM-1 is detected using PE-conjugated secondary mAbs. In each experiment, an aliquot of cells will be stained with isotype control mAbs to serve as a negative control. The percentage of VCAM-1 binding cells was then determined by flow cytometry.
as §1, with “(ALL) cells or 5TGMI myeloma” for “(ALL)”, “ALL or 5TGMI” for “ALL”

## COc1cc(C(N)=O)cc(OC)c1-c1ccc(C[C@H](NC(=O)c2c(Cl)cc(C(=O)O)cc2Cl)C(=O)O)cc1 [Cmpd 21, 4-{[(1S)-2-[4-(4-carbamoyl-2,6-dimethoxyphenyl)phenyl]-1-carboxyethyl]carbamoyl}-3,5-dichlorobenzoic acid]
Table 12
  IC50: 72 nM

## COc1cc(CO)cc(OC)c1-c1ccc(C[C@H](NC(=O)c2c(Cl)cc(C(=O)O)cc2Cl)C(=O)O)cc1 [Cmpd 22, 4-{[(1S)-1-carboxy-2-{4-[4-(hydroxymethyl)-2,6-dimethoxyphenyl]phenyl}ethyl]carbamoyl}-3,5-dichlorobenzoic acid]
Table 12
  IC50: 0.47 nM

## CCOCc1cc(OC)c(-c2ccc(C[C@H](NC(=O)c3c(Cl)cc(C(=O)O)cc3Cl)C(=O)O)cc2)c(OC)c1 [Cmpd 23, 4-{[(1S)-1-carboxy-2-{4-[4-(ethoxymethyl)-2,6-dimethoxyphenyl]phenyl}ethyl]carbamoyl}-3,5-dichlorobenzoic acid]
Table 12
  IC50: 0.58 nM

## COc1cc(C(=O)O)cc(OC)c1-c1ccc(C[C@H](NC(=O)c2c(Cl)cc(C(=O)O)cc2Cl)C(=O)O)cc1 [Cmpd 24, 4-{4-[(2S)-2-carboxy-2-[(4-carboxy-2,6-dichlorophenyl)formamido]ethyl]phenyl}-3,5-dimethoxybenzoic acid]
Table 12
  IC50: 218 nM

## COc1cc(C(C)(C)O)cc(OC)c1-c1ccc(C[C@H](NC(=O)c2c(Cl)cc(C(=O)O)cc2Cl)C(=O)O)cc1 [Cmpd 25, 4-{[(1S)-1-carboxy-2-{4-[4-(2-hydroxypropan-2-yl)-2,6-dimethoxyphenyl]phenyl}ethyl]carbamoyl}-3,5-dichlorobenzoic acid]
Table 12
  IC50: 70 nM

## COc1cc(CF)cc(OC)c1-c1ccc(C[C@H](NC(=O)c2c(Cl)cc(C(=O)O)cc2Cl)C(=O)O)cc1 [Cmpd 26, 4-{[(1S)-1-carboxy-2-{4-[4-(fluoromethyl)-2,6-dimethoxyphenyl]phenyl}ethyl]carbamoyl}-3,5-dichlorobenzoic acid]
Table 12
  IC50: 1.57 nM

## CCOCc1cc(OC)c(-c2ccc(C[C@H](NC(=O)[C@]3(C)CCCN3S(=O)(=O)c3cc(Cl)cc(Cl)c3)C(=O)O)cc2)c(OC)c1 [Cmpd 33, (S)-2-((S)-1-((3,5-dichlorophenyl)sulfonyl)-2-methylpyrrolidine-2-carboxamido)-3-(4′-(ethoxymethyl)-2′,6′-dimethoxy-[1,1′-biphenyl]-4-yl)propanoic acid]
Table 12
  IC50: 2.47 nM

## CCOCc1cc(OC)c(-c2ccc(C[C@H](NC(=O)[C@]3(C)CCCN3S(=O)(=O)c3ccccc3)C(=O)O)cc2)c(OC)c1 [Cmpd 34, (S)-3-(4′-(ethoxymethyl)-2′,6′-dimethoxy-[1,1′-biphenyl]-4-yl)-2-((S)-2-methyl-1-(phenylsulfonyl)pyrrolidine-2-carboxamido)propanoic acid]
Table 12
  IC50: 11.7 nM

## COc1cc(COC2COC2)cc(OC)c1-c1ccc(C[C@H](NC(=O)[C@@H]2CCCN2S(=O)(=O)c2cc(Cl)cc(Cl)c2)C(=O)O)cc1 [Compound 009]
Table 10
  IC50: 4.47 nM

## COc1cccc(N2CCC[C@H]2C(=O)N[C@@H](Cc2ccc(-c3c(OC)cccc3OC)cc2)C(=O)O)c1 [Compound 822]
Table 10
  IC50: 69 nM

## COc1cccc(OC)c1-c1ccc(C[C@H](NC(=O)C2(c3ccccn3)CCCC2)C(=O)O)cc1 [Compound 825]
Table 10
  IC50: 48 nM

## COc1cc(C(N)=O)cc(OC)c1-c1ccc(C[C@H](NC(=O)c2c(Cl)cc(C(=O)O)cc2Cl)C(=O)O)cc1 [Compound 1219, 4-{[(1S)-2-[4-(4-carbamoyl-2,6-dimethoxyphenyl)phenyl]-1-carboxyethyl]carbamoyl}-3,5-dichlorobenzoic acid]
Table 8
  IC50: 72 nM

## COc1cc(CO)cc(OC)c1-c1ccc(C[C@H](NC(=O)c2c(Cl)cc(C(=O)O)cc2Cl)C(=O)O)cc1 [Compound 1220, 4-{[(1S)-1-carboxy-2-{4-[4-(hydroxymethyl)-2,6-dimethoxyphenyl]phenyl}ethyl]carbamoyl}-3,5-dichlorobenzoic acid]
Table 8
  IC50: 0.47 nM
  inhibition of sVCAM-1 binding compared with other inhibitors: more potent inhibitors than 823

## CCOCc1cc(OC)c(-c2ccc(C[C@H](NC(=O)c3c(Cl)cc(C(=O)O)cc3Cl)C(=O)O)cc2)c(OC)c1 [Compound 1221, 4-{[(1S)-1-carboxy-2-{4-[4-(ethoxymethyl)-2,6-dimethoxyphenyl]phenyl}ethyl]carbamoyl}-3,5-dichlorobenzoic acid]
Table 8
  IC50: 0.58 nM
  inhibition of sVCAM-1 binding compared with other inhibitors: more potent inhibitors than 823

## COc1cc(C(=O)O)cc(OC)c1-c1ccc(C[C@H](NC(=O)c2c(Cl)cc(C(=O)O)cc2Cl)C(=O)O)cc1 [Compound 1222, 4-{4-[(2S)-2-carboxy-2-[(4-carboxy-2,6-dichlorophenyl)formamido]ethyl]phenyl}-3,5-dimethoxybenzoic acid]
Table 8
  IC50: 218 nM

## COc1cc(C(C)(C)O)cc(OC)c1-c1ccc(C[C@H](NC(=O)c2c(Cl)cc(C(=O)O)cc2Cl)C(=O)O)cc1 [Compound 1223, 4-{[(1S)-1-carboxy-2-{4-[4-(2-hydroxypropan-2-yl)-2,6-dimethoxyphenyl]phenyl}ethyl]carbamoyl}-3,5-dichlorobenzoic acid]
Table 8
  IC50: 70 nM

## COc1cc(CF)cc(OC)c1-c1ccc(C[C@H](NC(=O)c2c(Cl)cc(C(=O)O)cc2Cl)C(=O)O)cc1 [Compound 1224, 4-{[(1S)-1-carboxy-2-{4-[4-(fluoromethyl)-2,6-dimethoxyphenyl]phenyl}ethyl]carbamoyl}-3,5-dichlorobenzoic acid]
Table 8
  IC50: 1.57 nM
  inhibition of sVCAM-1 binding compared with other inhibitors: more potent inhibitors than 823

## COCCOCc1cc(OC)c(-c2ccc(C[C@H](NC(=O)c3c(Cl)cc(C(=O)O)cc3Cl)C(=O)O)cc2)c(OC)c1 [Compound 1554, (S)-4-((1-carboxy-2-(2′,6′-dimethoxy-4′-((2-methoxyethoxy)methyl)-[1,1′-biphenyl]-4-yl)ethyl)carbamoyl)-3,5-dichlorobenzoic acid]
Table 8
  IC50: 1.47 nM
  inhibition of sVCAM-1 binding compared with Firategrast: greater inhibition of sVCAM-1 binding than did Firategrast

## CCCCCCOCc1cc(OC)c(-c2ccc(C[C@H](NC(=O)c3c(Cl)cc(C(=O)O)cc3Cl)C(=O)O)cc2)c(OC)c1 [Compound 1555, (S)-4-((1-carboxy-2-(4′-((hexyloxy)methyl)-2′,6′-dimethoxy-[1,1′-biphenyl]-4-yl)ethyl)carbamoyl)-3,5-dichlorobenzoic acid]
Table 8
  IC50: 12.9 nM
  inhibition of sVCAM-1 binding compared with Firategrast: greater inhibition of sVCAM-1 binding than did Firategrast

## COCCOCCOCCOCc1cc(OC)c(-c2ccc(C[C@H](NC(=O)c3c(Cl)cc(C(=O)O)cc3Cl)C(=O)O)cc2)c(OC)c1 [Compound 1570, (S)-4-((2-(4′-(2,5,8,11-tetraoxadodecyl)-2′,6′-dimethoxy-[1,1′-biphenyl]-4-yl)-1-carboxyethyl)carbamoyl)-3,5-dichlorobenzoic acid]
Table 8
  IC50: 2.97 nM
  inhibition of sVCAM-1 binding compared with Firategrast: greater inhibition of sVCAM-1 binding than did Firategrast

## CCCCCC(=O)OCc1cc(OC)c(-c2ccc(C[C@H](NC(=O)c3c(Cl)cc(C(=O)O)cc3Cl)C(=O)O)cc2)c(OC)c1 [Compound 1571, (S)-4-((1-carboxy-2-(4′-((hexanoyloxy)methyl)-2′,6′-dimethoxy-[1,1′-biphenyl]-4-yl)ethyl)carbamoyl)-3,5-dichlorobenzoic acid]
Table 8
  IC50: 4.43 nM
  inhibition of sVCAM-1 binding compared with Firategrast: greater inhibition of sVCAM-1 binding than did Firategrast

## CCOCc1cc(OC)c(-c2ccc(C[C@H](NC(=O)[C@]3(C)CCCN3S(=O)(=O)c3cc(Cl)cc(Cl)c3)C(=O)O)cc2)c(OC)c1 [Compound 1608, (S)-2-((S)-1-((3,5-dichlorophenyl)sulfonyl)-2-methylpyrrolidine-2-carboxamido)-3-(4′-(ethoxymethyl)-2′,6′-dimethoxy-[1,1′-biphenyl]-4-yl)propanoic acid]
Table 8
  IC50: 2.47 nM
  inhibition of sVCAM-1 binding compared with Firategrast: significantly more potent than Firategrast

## CCOCc1cc(OC)c(-c2ccc(C[C@H](NC(=O)[C@]3(C)CCCN3S(=O)(=O)c3ccccc3)C(=O)O)cc2)c(OC)c1 [Compound 1609, (S)-3-(4′-(ethoxymethyl)-2′,6′-dimethoxy-[1,1′-biphenyl]-4-yl)-2-((S)-2-methyl-1-(phenylsulfonyl)pyrrolidine-2-carboxamido)propanoic acid]
Table 8
  IC50: 11.7 nM
  inhibition of sVCAM-1 binding compared with Firategrast: significantly more potent than Firategrast

## COc1cccc(OC)c1-c1ccc(C[C@H](NC(=O)c2c(Cl)cccc2Cl)C(=O)O)cc1C(C)O (some centres unmarked) [Compound 1632]
Table 10
  IC50: 10 nM
  inhibition of sVCAM-1 binding compared with Firategrast: significantly more potent than Firategrast

## COCCOCc1cc(OC)c(-c2ccc(C[C@H](NC(=O)[C@@H]3CCN3S(=O)(=O)c3ccccc3)C(=O)O)cc2)c(OC)c1 [Compound 1745, (S)-3-(2′,6′-dimethoxy-4′-((2-methoxyethoxy)methyl)-[1,1′-biphenyl]-4-yl)-2-((S)-1-(phenylsulfonyl)azetidine-2-carboxamido)propanoic acid]
Table 8
  IC50: 3.7 nM

Reference: patent publication US20190328706A1, “COMPOSITIONS COMPRISING AN INTEGRIN INHIBITOR AND AGENTS WHICH INTERACT WITH A CHEMOKINE AND METHODS OF USE THEREOF” (Saint Louis University, priority 2016, published 2019)
